The test system of experiment [1] is mouse (MC3T3-E1) and human (TE-85) osteoblast-line cells. The class given is cell-based. A digest of the protocol: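 Proliferation was read as ^3H-thymidine (0.4 μCi) uptake during a 4 h pulse, which started 20 h after compound addition. Before dosing, cells sat 24 h in 0.1% FBS. Values are % times control (100%).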
For experiment [2], the target named is T1, progestin receptor from rabbit uterus (Oryctolagus cuniculus, UniProt P06186).
T1 construct: Cytosolic progestin receptor were obtained by mixing rabbit uterine tissue with a Tris buffer; from tissue; host or cells: rabbit uterus cytosol
Nature of the experiment: Progestin receptor binding (3H-R5020 displacement). As to conditions: rabbit uterine cytosol, 4° C., 18 h, read-out: IC50: Binding affinity for the progestin receptor from rabbit uterus. A digest of the protocol:
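Displacement of the radioligand 3H-R5020 was measured in cytosol from homogenized rabbit uterus (pH 7.4 Tris/EDTA/DTT/molybdate buffer), with compounds at 5% final DMSO and about 18 h at 4 °C. Charcoal removed free ligand, scintillation counting quantified bound ligand, and IC50 was the concentration displacing half.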

For experiment [3], the system named is Human T47D breast carcinoma cells. Nature of the experiment: Ex vivo progestational test (T47D proliferation). The class given is cell-based. The following applies: SC200, 3H-thymidine incorporation. The protocol: The progestational activity of the compounds was accessed by their ability to stimulate proliferation of human breast carcinoma cells. Proliferation was measured as the ability to stimulate ^3 H-thymidine incorporation into these cells in vitro. Human T47D breast carcinoma cells (American Type Tissue Collection #133-HTB) were maintained in media consisting or RPMI 1640 supplemented with 10% fetal bovine serum, 10 ug/ml insulin, 10 U/ml pennicillin, 100 ug/ml streptomycin, and 2 mM L-glutamine. Monolayer cell cultures were trypsinized and washed in assay media consisting of phenol red-free RPMI 1640 supplemented with 5% charcoal-stripped, fetal bovine serum, and the other ingredients listed above. Cells were then plated in a 96-well plate. After a 48-hour incubation period at 37° C., the conditioned media was removed and replaced with fresh media containing test compounds in DMSO (0.1% DMSO final concentration). The cell cultures were incubated for 18 to 20 hours at 37° C. ^3 H-thymidine was then added to each well and the cell cultures were incubated at 37° C. for an additional 4 hours. Labelling was stopped by addition of un labelled thymidine. The cultures were washed twice, trypsinized and then harvested onto a filter mat. Incorporated ^3 -H-thymidine was measured by liquid scintillation counting. Data was expressed as a percent stimulation above control level which was set at 100%. An SC200 value was calculated as the concentration of test material needed to stimulate ^3 H-thymidine incorporation 200% of control.
Aspects of the application of the procedure used are described in the following: C. Christensen, D. Gunter, D. Saunders and V. Malviya, Gynecol. Oncol., 28, 25 (1987); J. Puzas, R. Drivdahl, G. Howard and D. Baylink, Proc. Soc. Exp. Biol. Med., 166, 113 (1981); and I. Keydar, L. Chen, S. Karby, F. Weiss, J. Delarea, M. Raduy, S. Chaitcik and H. Brenner, Eur. J. Cancer, 15, 659 (1979)
In general terms: Incorporation of labelled thymidine or its analogues reports DNA synthesis.

For the next experiment, the system named is rabbit endometrium. Nature of the experiment: In vivo progestational test (Clauberg Test). The arrangement: species or system rabbit (immature New Zealand White female); key: Active in Clauberg Assay; Active in McGinty Assay. The following applies: oral or parenteral, daily for five days. The method, then: Progestational activity was also measured in vivo by the abiity to stimulate the rabbit endometrium after either oral or parenteral administration.
[…]. Starting on the 7th day, the rabbits were given the test material daily for five days. The rabbits were sacrificed approximately 24 hours after the last administration, and the uteri were excised, trimmed and weighed. Portions of both uterine horns were fixed in 10% neutral formalin, sectioned at 6μ and stained with hematoxylin and eosin. Progestational activity was assessed as described above for the McGinty Test.

Where two headings read alike, the source gives them in different places.

T1 sequence (P06186 whole entry): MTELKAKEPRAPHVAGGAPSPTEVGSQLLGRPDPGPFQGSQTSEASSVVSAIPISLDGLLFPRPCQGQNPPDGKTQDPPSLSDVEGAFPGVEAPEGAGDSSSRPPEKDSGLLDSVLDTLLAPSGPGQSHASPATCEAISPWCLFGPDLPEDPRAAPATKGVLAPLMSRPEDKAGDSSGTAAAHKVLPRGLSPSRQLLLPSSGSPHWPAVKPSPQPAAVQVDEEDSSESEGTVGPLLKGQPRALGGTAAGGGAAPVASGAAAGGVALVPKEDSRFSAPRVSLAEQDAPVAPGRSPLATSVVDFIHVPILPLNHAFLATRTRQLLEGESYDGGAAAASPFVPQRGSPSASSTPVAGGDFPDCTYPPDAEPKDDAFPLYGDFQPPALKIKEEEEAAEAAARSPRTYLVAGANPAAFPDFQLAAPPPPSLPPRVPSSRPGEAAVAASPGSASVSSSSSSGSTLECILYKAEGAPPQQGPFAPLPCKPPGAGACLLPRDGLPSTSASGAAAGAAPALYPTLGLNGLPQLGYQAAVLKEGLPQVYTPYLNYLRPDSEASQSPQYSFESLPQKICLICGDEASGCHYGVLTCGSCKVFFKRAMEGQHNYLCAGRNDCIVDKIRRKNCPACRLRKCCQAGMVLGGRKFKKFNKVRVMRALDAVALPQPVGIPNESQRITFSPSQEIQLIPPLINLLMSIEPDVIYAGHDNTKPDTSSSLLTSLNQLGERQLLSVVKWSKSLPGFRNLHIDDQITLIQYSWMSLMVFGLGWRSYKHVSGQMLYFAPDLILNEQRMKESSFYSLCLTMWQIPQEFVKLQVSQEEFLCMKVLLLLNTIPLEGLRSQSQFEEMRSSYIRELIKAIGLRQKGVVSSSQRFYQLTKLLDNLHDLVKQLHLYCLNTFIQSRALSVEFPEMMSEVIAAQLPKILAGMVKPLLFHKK

Broadly, the IC50 is the concentration at which inhibition is half-maximal. In the case of `O=S(=O)(c1cc(Cl)ccc1Cl)N1CCCC(c2ccc(Cl)c(Cl)c2)=N1` [Compound 22, 3-(3,4-dichlorophenyl)-1-(2,5-dichlorobenzenesulphonyl)-1,4,5,6-tetrahydropyridazine], the “Osteoblast Cell Proliferation, 3H-thymidine incorporation vs control (100%)” value (“Osteoblast Cell Proliferation … (100%)” for short) was determined as 86% in experiment [1] (10^-6); 78% in experiment [1] (10^-7); 66% in experiment [1] (10^-8); 59% in experiment [1] (10^-9); 40% in experiment [1] (10^-10). For the same molecule, the 50% inhibitory concentration (IC50) in experiment [2] is 0.54 nM. Further, the “T47D: Concentration to elicit a 200% increase in T47D Human breast cell proliferation” value in experiment [3] amounted to 10000.
`O=S(=O)(c1cc(Cl)ccc1Cl)N1CCCC(c2ccc(Cl)c(C(F)(F)F)c2)=N1` [Compound 79, 3-(4-chloro-3-trifluoromethylphenyl)-1-(2,5-dichlorobenzenesulphonyl)-1,4,5,6-tetrahydropyridazine]: the IC50 in experiment [2] is 0.9 nM. Moreover, the “T47D: Concentration to elicit a 200% increase in T47D Human breast cell proliferation” value in experiment [3] is reported as 10000.
In the same order, the values of `O=S(=O)(c1ccccc1)N1CCCC(c2cccc(Cl)c2)=N1` [Compound 95] are 10.2 nM and 10000.
Consider `O=S(=O)(c1ccc(C(F)(F)F)cc1)N1CCCC(c2ccc(Cl)c(Cl)c2)=N1` [Compound 97, 3-(3,4-dichlorophenyl)-1-(4-trifluoromethylbenzenesulphonyl)-1,4,5,6-tetrahydropyridazine], for which, in experiment [2], the IC50 amounted to 0.99 nM. Moreover, the “T47D: Concentration to elicit a 200% increase in T47D Human breast cell proliferation” value in experiment [3] was 92. Moreover, the “In-vivo: Active in Clauberg Assay” value in the experiment with rabbit endometrium is “C”.
Regarding `O=S(=O)(c1cc(Cl)cc(Cl)c1)N1CCCC(c2ccc(Cl)c(Cl)c2)=N1` [Compound 104], in experiment [2], the IC50 was 0.85 nM. The “T47D: Concentration to elicit a 200% increase in T47D Human breast cell proliferation” value in experiment [3] was 76.
The like results for `O=S(=O)(c1cccc(Cl)c1Cl)N1CCCC(c2ccc(Cl)c(Cl)c2)=N1` [Compound 105, 3-(3,4-dichlorophenyl)-1-(2,3-dichlorobenzenesulphonyl)-1,4,5,6-tetrahydropyridazine] were, in that order, 1.87 nM and 1070.
The like results for `O=S(=O)(c1cccc(Cl)c1)N1CCCC(c2ccc(Cl)c(Cl)c2)=N1` [Compound 109] were, in that order, 1.09 nM and 1620.
For the molecule `O=[N+]([O-])c1cc(S(=O)(=O)N2CCCC(c3ccc(Cl)c(Cl)c3)=N2)ccc1Cl` [Compound 111], the IC50 in experiment [2] came to 16 nM. For the same molecule, in experiment [3], the “T47D: Concentration to elicit a 200% increase in T47D Human breast cell proliferation” value amounted to 10000.
`O=S(=O)(c1ccc(Br)cc1)N1CCCC(c2ccc(Cl)c(C(F)(F)F)c2)=N1` [Compound 115, 3-(4-chloro-3-trifluoromethylphenyl)-1-(4-bromobenzenesulphonyl)-1,4,5,6-tetrahydropyridazine]: the half-inhibitory concentration (IC50) in experiment [2] was found to be 2.09 nM. In addition, in experiment [3], the “T47D: Concentration to elicit a 200% increase in T47D Human breast cell proliferation” value is recorded as 72. Also, the “In-vivo: Active in Clauberg Assay” value in the experiment with rabbit endometrium is “C”.
On to `O=S(=O)(c1ccc(I)cc1)N1CCCC(c2ccc3ccccc3c2)=N1` [Compound 119, 3-(naphth-2-yl)-1-(4-iodobenzenesulphonyl)-1,4,5,6-tetrahydropyridazine], for which the half-inhibitory concentration (IC50) in experiment [2] was 2.53 nM. In addition, in experiment [3], the “T47D: Concentration to elicit a 200% increase in T47D Human breast cell proliferation” value turned out to be 868.
In the same order, the values of `Cc1ccc(S(=O)(=O)N2CCCC(c3ccc4ccccc4c3)=N2)cc1` [Compound 120] are 13.3 nM and 831.
Consider `O=S(=O)(c1ccc(C(F)(F)F)cc1)N1CCCC(c2ccc(Cl)c(C(F)(F)F)c2)=N1` [Compound 125, 3-(4-chloro-3-trifluoromethylphenyl)-1-(4-trifluoromethylbenzenesulphonyl)-1,4,5,6-tetrahydropyridazine], for which, in experiment [2], the IC50 amounted to 6.66 nM. Moreover, the “T47D: Concentration to elicit a 200% increase in T47D Human breast cell proliferation” value in experiment [3] came out at 166. Further, in the experiment on rabbit endometrium, the “In-vivo: Active in Clauberg Assay” value was “C”.
For `O=S(=O)(/C=C/c1ccc(Cl)cc1)N1CCCC(c2ccc(Cl)c(Cl)c2)=N1` [Compound 170], the “Osteoblast Cell Proliferation … (100%)” value in experiment [1] (10^-6) came to 68%; in experiment [1] (10^-7), 98%; in experiment [1] (10^-8), 108%; in experiment [1] (10^-9) it was 108%; in experiment [1] (10^-10) it was 108%. The concentration for half-maximal inhibition (IC50) in experiment [2] came out at 2.15 nM. Besides, the “T47D: Concentration to elicit a 200% increase in T47D Human breast cell proliferation” value in experiment [3] stood at 4000.
Consider `O=S(=O)(/C=C/c1ccccc1)N1CCCC(c2ccc3ccccc3c2)=N1` [Compound 174], for which the half-maximal inhibitory concentration (IC50) in experiment [2] was determined as 22.8 nM. The “T47D: Concentration to elicit a 200% increase in T47D Human breast cell proliferation” value in experiment [3] turned out to be 10000.
The like results for `O=S(=O)(/C=C/c1ccc(Cl)cc1)N1CCCC(c2ccc(Cl)c(C(F)(F)F)c2)=N1` [Compound 178] were, in that order, 5.18 nM and 164.
For `O=C(c1cc(Cl)cc(Cl)c1)N1CCCC(c2ccc(Cl)c(Cl)c2)=N1` [Compound 219], the “Osteoblast Cell Proliferation … (100%)” value in experiment [1] (10^-6) is on record as 144%; in experiment [1] (10^-7), 171%; in experiment [1] (10^-8), 141%; in experiment [1] (10^-9) it was 180%; in experiment [1] (10^-10), 178%. The IC50 in experiment [2] is 946 nM. The “T47D: Concentration to elicit a 200% increase in T47D Human breast cell proliferation” value in experiment [3] is 10000.
Take `O=S(=O)(c1ccc(I)cc1)N1CCCC(c2cc(Br)c(Br)s2)=N1` [Compound 278, 3-(4,5-Dibromo-2-thienyl)-1-(4-iodobenzenesulfonyl)-1,4,5,6-tetrahydropyridazine]: the IC50 in experiment [2] was 1 nM. Further, the “T47D: Concentration to elicit a 200% increase in T47D Human breast cell proliferation” value in experiment [3] is recorded as 85. Besides, the “In-vivo: Active in Clauberg Assay” value in the experiment with rabbit endometrium was “C”.
The like results for `CC1CCC(c2ccc(Cl)c(C(F)(F)F)c2)=NN1S(=O)(=O)c1ccc(I)cc1` (centres unmarked) [Compound 281, 1-(4-Iodobenzenesulfonyl)-3-(3-trifluoromethyl-4-chlorophenyl)-6-methyl-1,4,5,6-tetrahydropyridazine] were, in that order, 0.02 nM, 10 and “C”.
The like results for `CC1CCC(c2ccc(Cl)c(Cl)c2)=NN1S(=O)(=O)c1ccc(I)cc1` (centres unmarked) [Compound 282, 1-(4Iodobenzenesulfonyl)-3-(3,4-dichlorophenyl)-6-methyl 1,4,5,6-tetrahydropyridazine] were, in that order, 0.2 nM, 10.5 and “C”.

For the origin of these results see patent publication US5684151A, “1-arylsulphonyl, arylcarbonyl and 1-arylphosphonyl-3-phenyl-1,4,5,6-tetrahydropyridazines” (priority 1995, dated 1997).
